# Source: PMC9019904, “AD Informer Set: Chemical tools to facilitate Alzheimer's disease drug discovery” (Alzheimer's & Dementia : Translational Research & Clinical …, 2022)
# Experiments:
# [1] = tested on: HMC3 (human microglia) cell line; assay: pHrodo-myelin phagocytosis/cell viability high content imaging assay: phagocytosis signal; format: cell-based
# Summary of the method: (§1)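 Imaging at high content captured pHrodo-myelin uptake about 22 hours after its addition, alongside a viability read-out from the same cells. Three measurements were derived, with intensity increase marking early apoptosis and decrease marking later apoptosis.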
# [2] = tested on: BV2 (mouse microglia) cell line; assay: as above; format: cell-based
# Summary of the method: as §1
# [3] = tested on: HMC3 (human microglia) cell line; assay: pHrodo-myelin phagocytosis/cell viability high content imaging assay: viability (cell count, nuclear area, nuclear intensity); conditions: for 1. Cell count (% control) / 2. Nuclear Area (% Control) / 3. Nuclear DNA Intensity (% control): 48 hours treatment
# Summary of the method: (§2)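 Viability was read as total cell count per well by high-content imaging, with mean average nuclear intensity per cell profiling apoptosis (rise early, fall late). Compounds were given at 10 μM for 48 h, pHrodo-myelin being added for the final 20 h. Values are means of two points as % untreated control.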
# [4] = tested on: BV2 (mouse microglia) cell line; assay: as above; conditions: for 1. Cell count (% control) / 2. Nuclear Area (% Control) / 3. Nuclear DNA Intensity (% control): 48 hours treatment
# Summary of the method: as §2
# [5] = HMC3, compound 10 uM, pHrodo-myelin
# [6] = BV2, compound 10 uM, pHrodo-myelin
# [7] = HMC3 cells, 10 uM compound, 48 hours treatment, pHrodo-myelin final 20 hours
# [8] = BV2 cells, 10 uM compound, 48 hours treatment, pHrodo-myelin final 20 hours
Compound,"4. Phagocytosis (% control) [1, 5] [% control]","4. Phagocytosis (% control) [2, 6] [% control]","1. Cell count (% control) ([3]; HMC3, compound 10 uM)","2. Nuclear Area (% Control) ([3]; HMC3, compound 10 uM)","3. Nuclear DNA Intensity (% control) ([3]; HMC3, compound 10 uM)","1. Cell count (% control) ([4]; BV2, compound 10 uM)","2. Nuclear Area (% Control) ([4]; BV2, compound 10 uM)","3. Nuclear DNA Intensity (% control) ([4]; BV2, compound 10 uM)","4. Phagocytosis (% control) [1, 7] [% control]","4. Phagocytosis (% control) [2, 8] [% control]","1. Cell count (% control) ([3]; HMC3 cells, 10 uM compound)","2. Nuclear Area (% Control) ([3]; HMC3 cells, 10 uM compound)","3. Nuclear DNA Intensity (% control) ([3]; HMC3 cells, 10 uM compound)","1. Cell count (% control) ([4]; BV2 cells, 10 uM compound)","2. Nuclear Area (% Control) ([4]; BV2 cells, 10 uM compound)","3. Nuclear DNA Intensity (% control) ([4]; BV2 cells, 10 uM compound)",also measured
N[C@@H](CC(=O)Nc1ccc(Oc2cc(F)c(F)cc2Br)cc1)C(=O)O [UNC10303167A],85.8,179.3,105.9,102.5,96.0,64.5,104.8,103.7,,,,,,,,,
Cc1cc(C)nc(NC(=S)N2CCN(Cc3ccc(C(F)(F)F)cc3)CC2)c1 [UNC10302844A],,,,,,,,,108.4,180.4,133.1,97.8,105.3,129.8,107.6,103.9,
CCc1cnn2c(NCc3ccc[n+]([O-])c3)cc(N3CCCC[C@H]3CCO)nc12 [UNC10302845A],167.0,3.5,51.6,136.2,97.0,16.3,103.8,20.9,,,,,,,,,
"CN(C)c1ccc2c(c1)Sc1cc(N(C)C)ccc1N2.CS(=O)(=O)O.CS(=O)(=O)O [UNC10303097A, reference compound]",,,,,,,,,6.7,102.3,59.1,75.8,120.7,14.2,111.0,58.9,cytotoxicity in human microglial cells (cell count < 70% control) [3]: manifested toxicity in both microglial cell lines; cytotoxicity in mouse microglial cells (cell count < 70% control) [4]: manifested toxicity in both microglial cell lines
O=S(=O)(c1ccccc1)N(CC(F)(F)F)c1ccc(C(O)(C(F)(F)F)C(F)(F)F)cc1 [UNC10302875A],,,,,,,,,59.3,216.4,121.7,100.6,97.9,109.2,107.3,110.7,
C=C1C(=O)[C@]23[C@H](O)[C@H]1CC[C@H]2[C@@]12CO[C@]3(O)[C@@H](O)[C@@H]1C(C)(C)CC[C@@H]2O [UNC10302873A],0.0307,153.4,42.7,59.1,208.5,12.1,120.3,80.8,,,,,,,,,
CCCCCOc1cc2c(cc1-c1cc(/C=C/C(=O)O)ccc1O)C(C)(C)CCC2(C)C [UNC10302971A],,,,,,,,,107.7,103.8,103.0,101.2,101.8,104.0,103.5,104.7,
CCCN(CC1CC1)c1nc(C)nc(Nc2c(Cl)cc(Cl)cc2Cl)c1Cl.Cl [UNC10303155A],86.3,323.0,120.1,96.1,105.3,40.3,117.9,98.5,,,,,,,,,
Cc1cc2c(cc1-c1cc(/C=C\C(=O)O)ccc1O)C(C)(C)CCC2(C)C [UNC10302903A],,,,,,,,,96.9,143.5,106.9,99.9,95.8,102.7,107.7,96.7,
COc1cc([C@@H]2c3cc4c(cc3[C@H](O)[C@H]3COC(=O)[C@H]23)OCO4)cc(OC)c1OC [Podofilox],,,,,,,,,,,,,,,,,"Inhibition of human microglial phagocytosis at 10 μM (<70% control) ([1]; 10 μM, HMC3): Y (The compound was found to inhibit phagocytosis (response threshold: <70% control) when human immortalized microglial cells were dosed at 10 μM (Y: yes)); Stimulation of mouse microglial phagocytosis at 10 μM (>150% control) ([2]; 10 μM, BV2): Y (The compound was found to stimulate phagocytosis (response threshold: >150% control) when murine immortalized microglial cells were dosed at 10 μM (Y: yes)); Human microglial cytotoxicity at 10 μM (<70% control) ([3]; 10 μM, HMC3): Y (The compound was found to be cytotoxic (cell count threshold: <70% control) when human immortalized microglial cells were dosed at 10 μM (Y: yes)); Mouse microglial cytotoxicity at 10 μM (<70% control) ([4]; 10 μM, BV2): Y (The compound was found to be cytotoxic (cell count threshold: <70% control) when murine immortalized microglial cells were dosed at 10 μM (Y: yes))"
C=CC[C@@H]1/C=C(\C)C[C@H](C)C[C@H](OC)[C@H]2O[C@@](O)(C(=O)C(=O)N3CCCC[C@H]3C(=O)O[C@H](/C(C)=C/[C@@H]3CC[C@@H](O)[C@H](OC)C3)[C@H](C)[C@@H](O)CC1=O)[C@H](C)C[C@@H]2OC [UNC10121346A],,,,,,,,,110.2,195.2,103.0,100.5,98.5,60.9,110.1,115.2,
CC1(C)CCC(CN2CCN(c3ccc(C(=O)NS(=O)(=O)c4ccc(NCC5CCOCC5)c([N+](=O)[O-])c4)c(Oc4cnc5[nH]ccc5c4)c3)CC2)=C(c2ccc(Cl)cc2)C1 [UNC10302836A],79.7,211.1,133.1,98.6,97.8,115.0,107.1,100.7,,,,,,,,,
O=c1oc2ccccc2cc1-c1cn2cc(Cc3ccc(F)cc3)sc2n1 [UNC10302680A],,,,,,,,,72.6,114.2,107.8,96.3,103.3,59.2,99.6,132.0,
